Results from patent US20150025077A1 (COYOTE PHARMACEUTICALS, INC., priority 2012, published 2015).
“And” between values parts separate entries of the source, which are not always exact repeats. Equal values may be shown once. Read-outs that look alike come from different tables or passages of the source.

Tests used:
[1] = tested on: Sod1 mutant mice; assay type: in vivo
From the text: Values represent means±SEMs.
Subjects were weighed and tested for Grip Strength, and assigned Clinical and Neurological scores three times a week beginning at P90 and five times a week beginning at P100. The table below summarizes the experimental design of the study.
The grip strength test assesses motor function and control of the fore- and hindpaws. Mice were allowed to grab the bars on the Chatillon DFIS-10 digital force gauge (Largo, Fla.), while being gently pulled parallel away from the bars by the tail. The maximum force measured prior to release of the subject's paw from the bar was recorded.
Animals were scored using the scoring system tabulated below.

[2] = tested on: Rap1; test: Prenylation of Rap1 in Neuro2A cells, western blotting; assay type: cell-based, mouse; details: 100 nM
In short: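 Mouse Neuro2A cells in DMEM/10% FBS were treated with compound for 24 h, then GGTI-298 was added for a further 24 h. Un-prenylated and total Rap1 were quantified by western blot, normalized to GAPDH; the un-prenylated/total ratio was expressed as percent of GGTI-only control, mean of two biological repeats.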

[3] = Pharmacokinetics of CNS-102 in rats (IV, oral); assay type: in vivo; details: rat
Description: Rats were administered a single dose of CNS-102 either intravenously (12 mg/kg) or orally (24 mg/kg), and blood samples were taken to measure the average plasma concentrations of CNS-102 over time.
The formulation for this study includes the following: […]
Formulations: (Dose: 24 mg/kg; Study Date: 4-16-2012)

[4] = tested on: SOD1 mice; test: CatWalk gait analysis in SOD1 mice; assay type: in vivo, mouse; set-up: Hind stride length, Mean/average: unit not given beside the values
From the text: Prior to onset, there was little to no difference between the transgenic and wildtype groups. Transgenic animals tended to rely more on front paws for movement as weakness and paralysis in the hind paws progressed. This began to show around timepoint P100, coinciding with the expected onset of disease. This impairment was seen through changes in front and hind paw step cycle, print area, mean intensity, and base of support.

[5] = tested on: Neuro2A cells; test: Neuro2A cells that extended neurites, with GGTI-298 (Example 18); assay type: cell-based; details: 0.1-1 μM; vehicle 0.0-0.20
From the text: After differentiation was induced, cells that extended neurites were counted.

[6] = tested on: HSP70; details: rat eyes, single dose 12 mg/kg
[7] = tested on: HSP70; test: HSP70 gene expression in rat brain tissue, qRT-PCR; assay type: in vivo; details: 12 mg/kg oral
Description: […] Expression of selected HSPs was detected using qRT-PCR with expression of the GAPDH gene used as the control. To represent the effect of CNS-102 on HSP expression, mean fold change is calculated as CNS-102 treated/PBS treated for each HSP at each time point.

[8] = 12 mg/kg IV, individual rats 1-3, 12 mg/kg
[9] = 12 mg/kg IV, individual rats 2, 3, 12 mg/kg
[10] = 24 mg/kg oral vs 12 mg/kg IV, average
[11] = 24 mg/kg oral, individual rats 4-6, 24 mg/kg

CC(=O)CC/C=C(\C)CC/C=C(\C)CC/C=C(\C)CCC=C(C)C [CNS-102]
clinical and neuroscore testing ([1]; Sod1 mutant mice, CNS-102 12 mg/kg or Riluzole 8 mg/kg daily oral, vs vehicle): tended to outperform group D
neuroscore testing ([1]; Sod1 mutant mice, several timepoints around and after P100, vs vehicle): significantly outperforms group D
blood and neurology examinations ([1]; more than two months of once-daily oral 12 mg/kg): no abnormalities in blood and neurology examinations
body weight ([1]; wild type mice, group F (CNS-102) vs group E (vehicle)): no noticeable differences
toxicity or behavioral abnormalities ([1]; wildtype animals dosed with vehicle versus CNS-102 12 mg/kg daily): does not lead to obvious toxicity or behavioral abnormalities
prenylation of Rap1 compared to control ([2]; student's t-test, P=0.08): slightly increase the prenylation of Rap1
unprenylated/total RAP1 (%) ([2]; with GGTI-298, percentage of control (GGTI only)): 59%
Plasma Concentration of CNS-102 ([3]; 12 mg/kg IV, 5 min, average): 2402.5 ng/mL
Plasma Concentration of CNS-102 ([3]; 12 mg/kg IV, 5 min, individual rats 1-3, 12 mg/kg): 1268.2 ng/mL and 4087.5 ng/mL
Plasma Concentration of CNS-102 ([3]; 12 mg/kg IV, 10 min, average): 869.6 ng/mL
Plasma Concentration of CNS-102 ([3]; 12 mg/kg IV, 10 min, individual rats 1-3, 12 mg/kg): 227.0 ng/mL and 929.0 ng/mL
Plasma Concentration of CNS-102 ([3]; 12 mg/kg IV, 20 min, average): 518.9 ng/mL
Plasma Concentration of CNS-102 ([3]; 12 mg/kg IV, 20 min, individual rats 1-3, BQL set to zero, 12 mg/kg): 0.00 ng/mL and 652.7 ng/mL
Plasma Concentration of CNS-102 ([3]; 12 mg/kg IV, 30 min, average): 334.7 ng/mL
Plasma Concentration of CNS-102 ([3]; 12 mg/kg IV, 30 min, individual rats 1-3, BQL set to zero): 0.00 ng/mL
Plasma Concentration of CNS-102 ([3]; 12 mg/kg IV, 60 min, average): 325.8 ng/mL
Plasma Concentration of CNS-102 ([3]; 12 mg/kg IV, 60 min, individual rats 1-3, BQL set to zero): 0.00 ng/mL
Plasma Concentration of CNS-102 ([3]; 12 mg/kg IV, 120 min, average): 150.2 ng/mL
Plasma Concentration of CNS-102 ([3]; 12 mg/kg IV, 120 min, individual rats 1-3, BQL set to zero): 0.00 ng/mL
Plasma Concentration of CNS-102 ([3]; 12 mg/kg IV, 240 min, average): 209.0 ng/mL
Plasma Concentration of CNS-102 ([3]; 12 mg/kg IV, 240 min, individual rats 1-3, BQL set to zero): 0.00 ng/mL
Plasma Concentration of CNS-102 ([3]; 12 mg/kg IV, 480 min, average): 77.4 ng/mL
Plasma Concentration of CNS-102 ([3]; 12 mg/kg IV, 480 min, individual rats 1-3, BQL set to zero): 0.00 ng/mL
Plasma Concentration of CNS-102 ([3]; 12 mg/kg IV, 720 min, average): 0.0 ng/mL
Plasma Concentration of CNS-102 ([3]; 12 mg/kg IV, 720 min, individual rats 1-3, BQL set to zero): 0.00 ng/mL
AUC(0-inf) ([3]; 12 mg/kg IV, average): 208728 ng·min/mL
AUC(0-last) ([3]; 12 mg/kg IV, average): 115146 ng·min/mL
C0 ([3]; 12 mg/kg IV, average): 9144.0 ng/mL
Vss ([3]; 12 mg/kg IV, average): 9.796 L/kg
Vz ([3]; 12 mg/kg IV, average): 12.039 L/kg
t1/2 ([3]; 12 mg/kg IV, average): 2.45 h
AUC(0-last) [3, 8]: 19934.3 ng·min/mL and 95802.8 ng·min/mL and 229701.4 ng·min/mL
C0 [3, 8]: 7086.8 ng/mL and 17984.5 ng/mL and 2360.7 ng/mL
AUC(0-inf) [3, 9]: 115420.9 ng·min/mL and 302035.6 ng·min/mL
Vss [3, 9]: 6.0519 L/kg and 13.5396 L/kg
Vz [3, 9]: 11.6998 L/kg and 12.3785 L/kg
t1/2 [3, 9]: 1.3 h and 3.6 h
F (0-inf) [3, 10]: 49.1%
F (0-last) [3, 10]: 82.1%
Plasma Concentration of CNS-102 ([3]; 24 mg/kg oral, 10 min, average): 0.0 ng/mL
Plasma Concentration of CNS-102 ([3]; 24 mg/kg oral, 10 min, individual rats 4-6, BQL set to zero): 0 ng/mL
Plasma Concentration of CNS-102 ([3]; 24 mg/kg oral, 30 min, average): 193.3 ng/mL
Plasma Concentration of CNS-102 ([3]; 24 mg/kg oral, 30 min, individual rats 4-6, 24 mg/kg): 193.8 ng/mL and 224.3 ng/mL and 161.8 ng/mL
Plasma Concentration of CNS-102 ([3]; 24 mg/kg oral, 60 min, average): 576.8 ng/mL
Plasma Concentration of CNS-102 ([3]; 24 mg/kg oral, 60 min, individual rats 4-6, 24 mg/kg): 331.9 ng/mL and 500.2 ng/mL
Plasma Concentration of CNS-102 ([3]; 24 mg/kg oral, 120 min, average): 176.8 ng/mL
Plasma Concentration of CNS-102 ([3]; 24 mg/kg oral, 120 min, individual rats 4-6): 147.6 ng/mL
Plasma Concentration of CNS-102 ([3]; 24 mg/kg oral, 240 min, average): 298.0 ng/mL
Plasma Concentration of CNS-102 ([3]; 24 mg/kg oral, 240 min, individual rats 4-6, BQL set to zero): 0 ng/mL
Plasma Concentration of CNS-102 ([3]; 24 mg/kg oral, 480 min, average): 489.7 ng/mL
Plasma Concentration of CNS-102 ([3]; 24 mg/kg oral, 720 min, average): 47.2 ng/mL
Plasma Concentration of CNS-102 ([3]; 24 mg/kg oral, 720 min, individual rats 4-6, BQL set to zero): 0 ng/mL
Plasma Concentration of CNS-102 ([3]; 24 mg/kg oral, 1440 min, average): 0.0 ng/mL
Plasma Concentration of CNS-102 ([3]; 24 mg/kg oral, 1440 min, individual rats 4-6, BQL set to zero): 0 ng/mL
AUC(0-inf) ([3]; 24 mg/kg oral, average): 204878 ng·min/mL
AUC(0-last) ([3]; 24 mg/kg oral, average): 189114 ng·min/mL
Cmax ([3]; 24 mg/kg oral, average): 752.9 ng/mL
Tmax ([3]; 24 mg/kg oral, average): 340 min
t1/2 ([3]; 24 mg/kg oral, average): 1.72 h
AUC(0-inf) [3, 11]: 234242 ng·min/mL and 157666 ng·min/mL and 222724 ng·min/mL
AUC(0-last) [3, 11]: 214144 ng·min/mL and 130474 ng·min/mL and 222724 ng·min/mL
Cmax [3, 11]: 768 ng/mL and 898.2 ng/mL and 592.5 ng/mL
F (0-inf) [3, 11]: 56.1% and 37.8% and 53.4%
F (0-last) [3, 11]: 93.0% and 56.7% and 96.7%
Tmax [3, 11]: 480 min (2×) and 60 min
t1/2 [3, 11]: 1.64 h and 2.895 h and 0.613 h
Run Duration, CNS-102 - vehicle difference of averages ([4]; P120): −1.68
Stride Length, CNS-102 - vehicle difference of averages ([4]; P120): 1.46
Swing Speed, CNS-102 - vehicle difference of averages ([4]; P120): 14.58
Run Duration, Mean/average ([4]; P-42, SOD1/Vehicle 1.484746201): 1.685
Hind stride length, Mean/average ([4]; P-42, SOD1/Vehicle 6.359471205): 6.082
Swing speed, Mean/average ([4]; P-42, SOD1/Vehicle 45.8515272): 41.18
Run Duration, Mean/average ([4]; P-124 (+/−) 3, SOD1/Vehicle 3.461605345): 1.976
Hind stride length, Mean/average ([4]; P-124 (+/−) 3, SOD1/Vehicle 3.607909383): 5.476
Swing speed, Mean/average ([4]; P-124 (+/−) 3, SOD1/Vehicle 23.93413455): 35.63
Mean of cell numbers (cells that extended neurites) [5]: 0.45-0.65 Arbitrary units
HSP70 Expression (Fold change vs vehicle control), mean ± SD ([6]; 24 hr): 1.47 ± 0.36
HSP70 Expression (Fold change vs vehicle control), mean ± SD ([6]; 48 hr): 1.33 ± 0.10
HSP70 Expression (Fold change vs vehicle control), mean ± SD ([6]; 72 hr): 1.40 ± 0.11
HSP70 mean fold change (CNS-102 treated/PBS treated), mean ± SD ([7]; 24 h): 1.18 ± 0.01
HSP70 mean fold change (CNS-102 treated/PBS treated), mean ± SD ([7]; 48 h): 1.48 ± 0.02
HSP70 mean fold change (CNS-102 treated/PBS treated), mean ± SD ([7]; 72 h): 1.81 ± 0.01
HSP70 mean fold change (CNS-102 treated/PBS treated), mean ± SD ([7]; 96 h): 1.58 ± 0.03
